Measured values as given in patent US20160280651A1, “COMPOUNDS THAT INDUCE ABA RESPONSES” (THE REGENTS OF THE UNIVERSITY OF CALIFORNIA, priority 2013, published 2016).
Entries after “also recorded” stand apart in the source; their conditions may differ.

What was measured:
[1] = test system: ABI1 with PYR/PYL receptors; experiment: Receptor-mediated PP2C inhibition assay with ABI1, Example 1; type: biochemical, Arabidopsis; conditions: 10 μM; receptors PYR1, PYL1, PYL2, PYL3 and PYL5
Protocol: FIG. 2A-FIG. 2C. Novel ABA agonists inhibit PPC2 activity through multiple PYR/PYL. (A) Chemical structure of naturally occurring (+)-ABA and selected ABA agonists. (B) and (C) HAB1, ABU, and ABI2 PP2C enzyme activity based ABA-agonist assays for various receptors in the presence or absence of 10 μM each test chemical.
HAB1 and PYL proteins were expressed and purified as described previously (Park S Y, et al. (2009) Abscisic Acid Inhibits Type 2C Protein Phosphatases via the PYR/PYL Family of START Proteins. Science 324(5930):1068-1071), with minor modifications. To obtain GST-HAB1, -ABI1 and -ABI2 fusion proteins, the HAB1 cDNA was cloned into pGex-2T whereas ABI1 and ABI2 cDNAs were cloned into the vector pGex-4T-1. […] After 16 hours incubation at 15° C., cells were harvested and recombinant proteins were purified on glutathione agarose as described previously (Park S Y, et al. (2009). To obtain 6×His-PYL receptor fusion proteins, receptor cDNAs for all 13 ABA receptors were cloned into the vector pET28 and expressed and purified as described previously (Mosquna A, et al. (2011) Potent and selective activation of abscisic acid receptors in vivo by mutational stabilization of their agonist-bound conformation. PNAS 108(51):20838-20843); this yielded soluble and functional protein (assessed using receptor-mediated PP2C inhibition assays) for all receptors except PYL7, PYL11 and PYL12. […]

aba2 mutant plants = experiment: Rescue of growth defects of ABA-deficient mutant aba2; type: in vivo, Arabidopsis; conditions: 25 μM sprayed two times a day for two weeks; versus DMSO
Protocol: FIG. 16A-FIG. 16B. Application of LC66C6 can rescue growth defects observed in the ABA-deficient mutant aba2. Chemical solution (25 μM) was sprayed on 14-day-plants two times per day for 2 weeks. The image (A) and fresh weight (B) were obtained from 4-week plants.
In this example, 14-day old wild-type and aba2 mutant plants were sprayed with a solution containing 25 μM of agonist two times a day for two weeks. Images and fresh weight were obtained from 4 week old plants.

[2] = test system: detached leaves of crop species; experiment: Water loss analyses in diverse species; type: in vivo, soybean, barley, maize and other species; conditions: over a period of 2 hours
Protocol: (§1) FIG. 13A-FIG. 13E. LC66C6 modulates ABA responses in diverse species. Germination inhibition (A) and transpirational water loss in detached leaves 2-hours after detachment (B) in response to compounds shown. The expression of ABA-responsive marker genes in Soybean (C), Barley (D) and Maize (E) after application of chemicals. D, P, L and A indicate DMSO, pyrabactin, LC66C6 and (+)-ABA, respectively.
For water loss analyses using soybean barley and maize, 100 μM chemical solution containing 0.05% Tween-20 was sprayed on to the aerial parts of the plants. The soybean, barley and maize plants used were approximately 4-, 2- and 2-weeks old respectively. Compounds were applied 16 hours before water loss assays were conduction. To measure water loss entire shoots were detached and their fresh weight monitored.

[3] = test system: broccoli, radish, alfalfa, soybean, barely, wheat, sorghum and maize seeds; experiment: Germination inhibition in diverse species; type: in vivo; conditions: barley
Source text: as §1

GmNAC4 and GmbZIP1 = experiment: Quantitative RT-PCR of ABA-responsive genes in soybean; type: in vivo
Source text: as §1
Total RNA was isolated using Plant RNA purification reagent (Invitrogen, USA) according to the manufacturer's instructions. cDNA was synthesized from 1 μg of total RNA using the QantiTec reverse transcription kit (Qiagen, USA). Real-time PCR using Maxima® SYBR Green/Fluorescein qPCR Master Mix (Fermentas) was performed with the iQ5 real-time PCR detection system (Bio-Rad, Hercules, Calif.). The relative amounts of target mRNAs were determined using the relative standard curve method and were normalized by relative amount of internal control mRNA. Biological triplicate experiments were performed.

Arabidopsis seedlings = experiment: Root growth and plant growth inhibition of Arabidopsis seedlings; type: in vivo
Protocol: FIG. 6A-FIG. 6C. LC66C6 inhibits plant growth. (A) Photographs showing the effect of ABA, Pyrabactin and LC66C6 on the wild type, abi1-1 and PYR/PYL quadruple mutant Arabidopsis genotypes. (B) Root growth inhibition and (C) plant growth inhibition by ABA, LC66C6 and pyrabactin. Two day old seedlings were transferred on ½×MS plate containing chemicals and phenotypes scored or photographed after a 5-day incubation on test compounds.

ABA-responsive genes = experiment: ABA-responsive gene expression in moss; type: in vivo, Physcomitrella patens; conditions: 200 μM for 3 h
Protocol: FIG. 17A-FIG. 17D. The effect of ABA and its agonists in Physcomitrella patens and Chlamydomonas. Protonemal growth images (A) and quantitative analysis (B) of the effects of ABA and agonists on Phsycomitrella patens. Protonema were grown on 200 μM of specific test chemical for 10 days. […] Pyrabactin bleached protonema. (C) The expression of ABA-responsive genes of Physcomitrella patens. Protonema were treated with 200 μM chemical solutions for 3 h. (D) Colony growth of Chlamydomonas on the chemical with salinity stress and osmotic stress. There was no effect of ABA and LC66C6 on the Chlamydomonas growth with and without stresses.

CCCN1C(=O)CCc2cc(NS(=O)(=O)Cc3ccc(C)cc3)ccc21 [LC66C6]
PP2C inhibition of ABI1 [1]: > 70%
Size of aba2 mutant plants (aba2 mutant plants): significantly increased the size of the mutant plants
Transpirational water loss in detached leaves of diverse species [2]: reduces transpirational water loss
Inhibition of germination in diverse species [3]: inhibits germination; also recorded: greater than pyrabactin
Expression of ABA-responsive genes GmNAC4 and GmbZIP1 (GmNAC4 and GmbZIP1): strongly induces
Inhibition of plant growth (Arabidopsis seedlings; wild-type and mutant plants): significantly greater than the inhibition by pyrabactin, and comparable to that of (+)-ABA
Inhibition of root elongation (Arabidopsis seedlings; wild-type, abi1 and quadruple mutant, all concentrations tested): comparable to or slightly more effective than (+)-ABA
Expression of ABA-responsive genes in moss (ABA-responsive genes): can induce the expression of ABA-responsive genes in moss
